# Data reported in patent publication US20080124413A1, “NOVEL COMPOSITION CONTAINING EXTRACTS OF BUTYROSPERMUM PARKII AND THE USE OF SUCH A COMPOSITION FOR PREPARING A MEDICAMENT OR A DIETARY SUPPLEMENT FOR THE TREATMENT OR PREVENTION OF INFLAMMATION […] OR PAIN” (BSP Pharma A/S, priority 1999, published 2008).
# Like-named read-outs stand apart in the source and are kept apart here.
# What was measured:
# [1] = tested on: BALB/c mouse arthritis induced by collagen mono-clonal antibody (mAb) and lipopolysaccharide; format: in vivo; conditions: cyclophosphamide 10 mg/kg x3 orally, p<0.05 Wilcoxon
# Method: BPC was dissolved in 100% corn oil. […] Dosing volume was 5 ml/kg.
# In this study, male BALB/c mice weighing 20±1 grams were used. Space allocation for 5 mice was 45×23×15 cm. The animals were housed in APEC® (Allentown Gaging, Allentown, N.J. 08501, U.S.A.) cages and maintained in a hygienic environment under controlled temperature (22° C.-24° C.) and humidity (60%-80%) with 12-hours light/dark cycles for at least one week prior to being used. Free access to standard lab chow for mice and tap water was granted. All aspects of this work including housing, experimentation and disposal of animals were performed in general according to the International Guiding Principles for Biomedical Research Involving Animals (CIOMS Publication No. ISBN 92 90360194, 1985).
# The study was performed according to the method of Terato et al. (Autoimmunity, 22:137-147, 1995).
# Groups of 5 BALB/c mice, 6-8 weeks of age, were used for the induction of arthritis by monoclonal antibodies (mAbs) and lipopolysaccharide (LPS). […] This was followed by intravenous 25 μg of LPS 72 hours later (day 3). From day 3, test substances were administered orally once daily for 3 consecutive days. At day 5, one or two paws (particularly the hind) began to appear red and swollen, and from day 7, arthritis symptoms of the two hind paws became severely red and swollen in untreated mice. A plethysmometer (Ugo Basile Cat # 7150) with water cell (12 mm diameter) was used for the measurement of increase in both hind paw volumes at day 7, 10, 14 and 17. The percent of inhibition of increased paw volume was calculated as follows:
# Inhibition (%): [1−(Tn−To)/(Cn−Co)]×100
# Co (Cn): Volume of day 0 (day n) in vehicle control (both hind paws summed)
# To (Tn): Volume of day 0 (day n) in test compound-treated group (both hind paws summed)
# Wilcoxon rank sum test for paired differences was used for comparing swelling in the test compound treated groups with swelling in the control group.
# rat = conditions: The Merck Index; cited from earlier work
compound,measurement,setting,value
O=P1(N(CCCl)CCCl)NCCCO1 (stereo not shown) [cyclophosphamide],reduction of hind paw edema relative to the vehicle-treated control group,[1]; day 10,79%
same,reduction of hind paw edema relative to the vehicle-treated control group,[1]; day 14,91%
same,reduction of hind paw edema relative to the vehicle-treated control group,[1]; day 17,90%
same,LD50,rat,94 mg/kg
